Activity calls are given as the source filed them. The rule behind the calls is not given here.
Assays:
T cell [1] = test: Inhibition of anti-human CD3/CD28/mAbs-stimulated human T-cell proliferation at 30 uM after 72 hrs by CFSE staining based flow cytometric analysis; assay type: functional, tissue-based
[2] = (§1) Inhibition of anti-human CD3/CD28/mAbs-stimulated human T-cell proliferation after 72 hrs by CFSE staining based flow cytometric analysis; assay type: functional, tissue-based
T cell [3] = test: as §1; assay type: functional, tissue-based
[4] = Cytotoxicity against human T-cell assessed reduction in cell viability at 30 uM after 72 hrs; assay type: tissue-based
[5] = Cytotoxicity against human T-cell assessed reduction in cell viability at 10 uM after 72 hrs; assay type: tissue-based

Compound: COc1cc2oc(=O)ccc2c(OC)c1CC(O[C@@H]1O[C@H](CO)[C@@H](O)[C@H](O)[C@H]1O)C(C)(C)O (some centres undefined)
- inhibition (T cell [1]): Active

Compound: COc1cc(C(=O)O)cc(OC)c1O
- inhibition (T cell [1]): Active

Compound: COc1cc2oc(=O)ccc2c(OC)c1C[C@@H](O)C(C)(C)O[C@@H]1O[C@H](CO)[C@@H](O)[C@H](O)[C@H]1O
- inhibition (T cell [1]): Active

Compound: COc1cc2c(cc1OC)-c1ccc3cc4c(cc3c1N(C)C2)OCO4
- IC50 [2]: 6.7 µM
- inhibition (T cell [3]): Dose-dependent effect
- Activity [4]: Toxic

Compound: COc1cc(/C=C/C(=O)OC[C@H]2O[C@@H](OC[C@H]3[C@H](CO)Cc4cc(OC)c(O)c(OC)c4[C@@H]3c3cc(OC)c(O)c(OC)c3)[C@H](O)[C@@H](O)[C@@H]2O)cc(OC)c1O
- inhibition (T cell [1]): Active

Compound: COc1cc2oc(=O)ccc2c(OC)c1C(=O)O
- inhibition (T cell [1]): Active

Compound: COc1cc2oc(=O)ccc2c(OC)c1CC(O)C(C)(C)O (centres undefined)
- inhibition (T cell [1]): Active

Compound: O=C(/C=C/c1ccc(O)cc1)NCCc1ccc(O)cc1
- inhibition (T cell [1]): Active

Compound: COc1cc2c[n+](C)c3c4cc5c(cc4ccc3c2cc1OC)OCO5.[Cl-] [NITIDINE CHLORIDE]
- IC50 [2]: 0.4 µM
- inhibition (T cell [3]): Dose-dependent effect
- Activity [5]: Toxic
- Activity [4]: Toxic

Compound: COc1ccc([C@@H]2CC(=O)c3c(O)cc(O[C@@H]4O[C@H](CO[C@@H]5O[C@@H](C)[C@H](O)[C@@H](O)[C@H]5O)[C@@H](O)[C@H](O)[C@H]4O)cc3O2)cc1O
- inhibition (T cell [1]): Active

Compound: COc1cc(O)c(CCC(=O)O)c(OC)c1CC(O)C(C)(C)O (centres undefined)
- inhibition (T cell [1]): Active

Compound: COc1cc2oc(=O)ccc2c(OC)c1C[C@H](O)C(C)(C)O[C@@H]1O[C@H](CO)[C@@H](O)[C@H](O)[C@H]1O
- inhibition (T cell [1]): Active

Compound: COc1ccc2c(c1OC)CN(C)CCc1cc3c(cc1C(=O)C2)OCO3
- inhibition (T cell [1]): Active

Compound: COc1cc(/C=C/C(=O)OC[C@H]2O[C@@H](OC[C@@H](Cc3cc(OC)c(O)c(OC)c3)[C@@H](CO)Cc3cc(OC)c(O)c(OC)c3)[C@H](O)[C@@H](O)[C@@H]2O)cc(OC)c1O
- inhibition (T cell [1]): Active
